Measurements as given in the NIST ThermoML archive (doi:10.1016/j.jct.2006.06.005).
Numbers after ± are expanded uncertainties.

Assays:
[1] = 101 kPa, Liquid
[2] = xn = mol fraction of the nth substance listed; settings: 101 kPa, Liquid

CN1CCCC1=O [N-methylpyrrolidone]
[1]
Settings | mass density [kg/m3] | viscosity [mPa·s]
303.15 K | 1023.47 ± 0.53 | 1.554 ± 0.037
313.15 K | 1014.55 ± 0.5 | 1.332 ± 0.032
323.15 K | 1005.66 ± 0.47 | 1.16 ± 0.029
333.15 K | 996.71 ± 0.46 | 1.022 ± 0.026
343.15 K | 987.75 ± 0.48 | 0.908 ± 0.023
353.15 K | 978.76 ± 0.51 | 0.8127 ± 0.021

CN1CCCC1=O [N-methylpyrrolidone] + C1CCCCC1
[2]
Settings | mass density, 303.15 K [kg/m3] | mass density, 313.15 K [kg/m3] | mass density, 323.15 K [kg/m3] | mass density, 333.15 K [kg/m3] | viscosity, 303.15 K [mPa·s] | viscosity, 313.15 K [mPa·s] | viscosity, 323.15 K [mPa·s] | viscosity, 333.15 K [mPa·s]
x2 = 0 | 1023.47 ± 0.53 | 1014.55 ± 0.5 | 1005.66 ± 0.47 | 996.71 ± 0.46 | 1.554 ± 0.037 | 1.332 ± 0.032 | 1.16 ± 0.029 | 1.022 ± 0.026
x2 = 0.1157 | 989.9 ± 0.44 | 980.96 ± 0.46 | 972.02 ± 0.49 | 963.06 ± 0.51 | 1.394 ± 0.034 | 1.206 ± 0.03 | 1.056 ± 0.026 | 0.931 ± 0.024
x2 = 0.2275 | 958.38 ± 0.49 | 949.41 ± 0.52 | 940.41 ± 0.54 | 931.37 ± 0.57 | 1.28 ± 0.031 | 1.106 ± 0.027 | 0.965 ± 0.024 | 0.854 ± 0.022
x2 = 0.3355 | 928.85 ± 0.55 | 919.78 ± 0.58 | 910.71 ± 0.6 | 901.57 ± 0.63 | 1.194 ± 0.029 | 1.032 ± 0.026 | 0.9 ± 0.023 | 0.791 ± 0.02
x2 = 0.4398 | 901.35 ± 0.61 | 892.21 ± 0.64 | 883.02 ± 0.67 | 873.78 ± 0.69 | 1.132 ± 0.028 | 0.973 ± 0.024 | 0.843 ± 0.021 | 0.739 ± 0.019
x2 = 0.5409 | 875.71 ± 0.67 | 866.43 ± 0.7 | 857.14 ± 0.73 | 847.77 ± 0.76 | 1.073 ± 0.026 | 0.92 ± 0.023 | 0.791 ± 0.02 | 0.692 ± 0.018
x2 = 0.6386 | 851.53 ± 0.73 | 842.17 ± 0.76 | 832.77 ± 0.79 | 823.29 ± 0.82 | 1.011 ± 0.025 | 0.866 ± 0.022 | 0.746 ± 0.019 | 0.648 ± 0.017
x2 = 0.7332 | 828.73 ± 0.8 | 819.29 ± 0.82 | 809.79 ± 0.85 | 800.2 ± 0.88 | 0.953 ± 0.024 | 0.813 ± 0.021 | 0.699 ± 0.018 | 0.608 ± 0.016
x2 = 0.8249 | 807.41 ± 0.86 | 797.92 ± 0.89 | 788.36 ± 0.92 | 778.69 ± 0.95 | 0.895 ± 0.022 | 0.76 ± 0.02 | 0.655 ± 0.017 | 0.573 ± 0.016
x2 = 0.9138 | 787.37 ± 0.92 | 777.85 ± 0.95 | 768.22 ± 0.98 | 758.49 ± 1 | 0.843 ± 0.021 | 0.72 ± 0.019 | 0.623 ± 0.017 | 0.544 ± 0.015
